The record followed here is patent US20260014246A1, “TREATMENT METHODS FOR VIRAL INFECTIONS” (priority 2022, published 2026).

The subject of one data set is Vero-E6 cells. The experiment in a line: Cytotoxic effects in Vero-E6 cells (Reliablue viability). It counts as cell-based. As to the method: Data for peptide 4F (Ac-[…]-NH2; SEQ ID NO: 34) is also provided. In this example, Vero-E6 cells (96 well plate) were grown in EMEM containing 10% FBS and Pen/Strep at 37° C. and 5% CO2. Once cells reached 80% confluence, medium was replaced with fresh complete medium containing the indicated concentration of peptide (FIGS. 6A-B) or peptide complexed with DMPC (1:5 ratio weight:weight). Incubation period proceeded for 24 or 48 hrs. Cells were washed and replaced with complete medium containing fluorescent Reliablue reagent. Viability was then measured. Data are presented as percent viability compared to control (no additions). Results are presented as the mean±SEM.

In data set [1] the test system is SARS-COV-2 Alpha. The following applies: for IC50: Alpha.
Data set [2] deals with SARS-COV-2 Alpha. Briefly: Remdizivir treatment of mice challenged with SARS-COV-2 Alpha. It counts as in vivo, female hACE2 Knock-in mice. As to conditions: 25 mg/kg bodyweight, single dose; 54000 pfu intranasal; untreated mice 20%.
In a further data set the test system is H1N1A-California. It counts as in vivo, female C57BL/6J mice.
The test system of data set [3] is H1N1. Briefly: Second challenge with active H1N1 after intranasal peptide-inactivated H1N1. It is filed as in vivo, female C57BL/6J mice. As to conditions: 14 days.
The test system of data set [4] is SARS-COV-2 Alpha. The experiment in a line: SARS-COV-2 Alpha pre-incubated with peptide and given intranasally to mice. The following applies: 54000 pfu pre-incubated ~45 min with 10 μM peptide; intranasal; 14 days. It counts as in vivo, female hACE2 Knock-in mice.
Data set [5] relates to SARS-COV-2 Alpha. Briefly: Rechallenge with active SARS-COV-2 Alpha after EVE18 inactivated SARS-COV-2 Alpha (homologous). It counts as in vivo, female hACE2 Knock-in mice. The following applies: rechallenge with 54000 pfu SARS-COV-2 Alpha eight weeks after initial challenge; 14 days.
In data set [6] the test system is SARS-COV-2 Delta. Briefly: SARS-COV-2 Delta pre-incubated with EVE18 and given intranasally to mice. It counts as in vivo, female hACE2 Knock-in mice. As to conditions: 54000 pfu SARS-COV-2 Delta pre-incubated ~45 min with 10 μM peptide; intranasal; 14 days.
In data set [7] the test system is SARS-COV-2 Delta. The experiment in a line: Rechallenge with active SARS-COV-2 Delta after EVE18 inactivated SARS-COV-2 Alpha (heterologous). It is filed as in vivo, female hACE2 Knock-in mice. The following applies: rechallenge with 54000 pfu SARS-COV-2 Delta nine and seven weeks after initial challenge; two groups; 14 days.
Data set [8] concerns SARS-COV-2 Alpha. Briefly: Therapeutic dosing of EVE18 in mice challenged with SARS-COV-2 Alpha. It is filed as in vivo, female hACE2 Knock-in mice.
Data set [9] relates to H1N1. The experiment in a line: Sub-cutaneous EVE14 in mice challenged intranasally with H1N1. It is filed as in vivo, female C57BL/6J mice.
The test system of data set [10] is H1N1. Briefly: Second H1N1 challenge of mice that received H1N1 and sub-cutaneous EVE14. It counts as in vivo, female C57BL/6J mice. The following applies: second challenge 1200 pfu H1N1 three weeks after the first.
Setting [11] is: [peptide-lipid] complex (DMPC 1:5 weight:weight), 48 hours incubation.
Where [12] appears, read: 300 micrograms sub-cutaneous 2 hr prior to virus and second dose 24 hr after virus.

Where two headings read alike, the source gives them in different places. Peptide text beside a SMILES is read from it.

As a reminder, the IC50 is the point on the concentration scale where inhibition reaches its midpoint.

In the case of `CC(=O)N[C@@H](CC(C)C)C(=O)N[C@@H](CCCNC(=N)N)C(=O)N[C@@H](CCCCN)C(=O)N[C@@H](CC(C)C)C(=O)N[C@@H](CCCNC(=N)N)C(=O)N[C@@H](CCCCN)C(=O)N[C@@H](CCCNC(=N)N)C(=O)N[C@@H](CC(C)C)C(=O)N[C@@H](CC(C)C)C(=O)N[C@@H](CCCNC(=N)N)C(=O)N[C@@H](CC(=O)O)C(=O)N[C@@H](Cc1c[nH]c2ccccc12)C(=O)N[C@@H](CC(C)C)C(=O)N[C@@H](CCCCN)C(=O)N[C@@H](C)C(=O)N[C@@H](Cc1ccccc1)C(=O)N[C@@H](Cc1ccc(O)cc1)C(=O)N[C@@H](CC(=O)O)C(=O)N[C@@H](CCCCN)C(=O)N[C@H](C(=O)N[C@@H](C)C(=O)N[C@@H](CCC(=O)O)C(=O)N[C@@H](CCCCN)C(=O)N[C@@H](CC(C)C)C(=O)N[C@@H](CCCCN)C(=O)N[C@@H](CCC(=O)O)C(=O)N[C@@H](C)C(=O)N[C@@H](Cc1ccccc1)C(N)=O)C(C)C` [EVE4] (Ac-LRKLRKRLLRDWLKAFYDKVAEKLKEAF-NH2), the cytotoxic effects entry is listed as “lack of cytotoxic effects” in the data set on Vero-E6 cells (setting [11]); “lack of cytotoxic effects” in the data set on Vero-E6 cells (peptide, 24 hours incubation); “lack of cytotoxic effects” in the data set with Vero-E6 cells (peptide, 48 hours incubation). In addition, the “antiviral activity in comparison to remdesivir” value with SARS-COV-2 Alpha [1] is given as “greater antiviral activity than remdesivir”. Further, the “SARS-COV-2 positive area reduced to” value with SARS-COV-2 Alpha [1] (1 μM) is given as about 0. In addition, the IC50 in the data set on SARS-COV-2 Alpha [1] lay in the range of 3 to 4.5 µM.
In the case of `CC[C@H](C)[C@H](NC(=O)[C@H](CCCNC(=N)N)NC(=O)[C@H](C)NC(=O)[C@H](Cc1c[nH]c2ccccc12)NC(=O)[C@H](CO)NC(=O)CNC(=O)[C@H](CC(C)C)NC(=O)[C@H](Cc1ccccc1)NC(=O)[C@H](CCCNC(=N)N)NC(=O)[C@H](CCCNC(=N)N)NC(=O)[C@H](Cc1ccccc1)NC(=O)CNC(C)=O)C(=O)N[C@@H](Cc1ccc(O)cc1)C(=O)N[C@@H](CCCNC(=N)N)C(=O)N[C@@H](C)C(=O)N[C@@H](Cc1ccccc1)C(=O)N[C@H](C(=O)NCC(N)=O)C(C)C` [EVEmR18L, Ac-GFRRFLGSWARIYRAFVG-NH2] (Ac-GFRRFLGSWARIYRAFVG-NH2), the cytotoxic effects entry is “lack of cytotoxic effects” with Vero-E6 cells (setting [11]); “lack of cytotoxic effects” in the data set on Vero-E6 cells (peptide, 24 hours incubation); “lack of cytotoxic effects” in the data set on Vero-E6 cells (peptide, 48 hours incubation). The “antiviral activity in comparison to remdesivir” value with SARS-COV-2 Alpha [1] was “greater antiviral activity than remdesivir”. Also, in the data set with SARS-COV-2 Alpha [1] (1 μM), the “reduction of the SARS-COV-2 positive area” value was “approximately 80%”. In the data set on SARS-COV-2 Alpha [1] (10 μM), the “SARS-COV-2 positive area reduced to” value was about 0. Besides, in the data set on SARS-COV-2 Alpha [1], the IC50 lay within 3 to 4.5 µM.
The molecule `CCC(CC)COC(=O)[C@H](C)N[P@](=O)(OC[C@H]1O[C@@](C#N)(c2ccc3c(N)ncnn23)[C@H](O)[C@@H]1O)Oc1ccccc1` [remdesivir, reference compound] returned a mouse survival in the data set on SARS-COV-2 Alpha [2] of 40%. The “reduction of the SARS-COV-2 positive area” value in the data set on SARS-COV-2 Alpha [1] (1 μM) is “approximately 65%”.
Regarding Ac-GFRRFYGSIWRFIRAFVG-NH2 [EVE18], in the data set with H1N1A-California (14 days), the bodyweight loss entry is listed as “No mouse in this group died or lost significant bodyweight”. The “mortality (frank mortality or weight loss of 25%)” value in the data set on H1N1A-California (14 days) is given as “No mouse in this group died”. Moreover, the mortality after rechallenge entry with H1N1 [3] (mice first given peptide-treated H1N1 (~45 min, ~10 μM), rechallenged several weeks later with 1200 pfu active H1N1A-California) is “No mouse in this group died during this period”. The survival result in the data set with SARS-COV-2 Alpha [4] is “All mice in this group survived”; with SARS-COV-2 Delta [6], “All mice in this group survived”; in the data set on SARS-COV-2 Delta [7], 85%; in the data set on SARS-COV-2 Alpha [8] (300 micrograms 24 hr, 48 hr and 72 hrs after 54000 pfu virus, 10 days, virus alone 20%) it was 50%; in the data set on SARS-COV-2 Alpha [8] (setting [12]), 70%. Also, the rechallenged mice survived in the data set with SARS-COV-2 Alpha [5] is recorded as about 75%. For the same molecule, the “mortality (timing)” value is given as “delayed mortality” in the data set on SARS-COV-2 Alpha [8] (300 micrograms 24 hr, 48 hr and 72 hrs after 54000 pfu virus); “delayed the mortality” with SARS-COV-2 Alpha [8] (setting [12]).
For the molecule Ac-RRFYGSIWRFIRAF-NH2 [EVE14], in the data set on H1N1A-California (14 days), the bodyweight loss entry is given as “incapable of inducing weight loss or frank death”, the “death (frank death or 25% decrease in bodyweight)” value is “incapable of inducing death”, the “mortality (frank mortality or weight loss of 25%)” value is given as “No mice in this group died” and the weight loss result is “incapable of inducing weight loss”. Moreover, in the data set on H1N1A-California (mouse, in vivo), the survival entry was “survived this initial challenge” and the weight loss entry is reported as “lost little weight”. The “bodyweight loss after second challenge” value in the data set with H1N1 [3] (mice first given H1N1A pre-incubated with peptide for 60 minutes, second challenge 1200 pfu active H1N1 several weeks later) is recorded as “no mouse in the group which underwent a second H1N1 challenge lost significant bodyweight”. The weight loss entry with H1N1 [9] (300 micrograms sub-cutaneously plus 150 microgram boosters (24, 48 hr or 24-96 hr), 1200 pfu H1N1 intranasal, compared to untreated mice) is listed as “significant delay in their weight loss which also was blunted”. The weight loss entry in the data set with H1N1 [9] (Example 13, FIG. 14: 1200 pfu H1N1 intranasal, peptide sub-cutaneously) was “much reduced weight loss”. Besides, the “survival (or bodyweight loss of less than 25%)” value with H1N1 [9] (both sub-cutaneous treatment groups compared to H1N1 alone) is reported as “significantly increased survival”. Also, the “mortality or weight loss after second challenge” value with H1N1 [10] was “does not elicit mortality or weight loss”. The mice survived result with SARS-COV-2 Alpha [4] was “Ninety”.
